# Laboratory results: patent US11021444B2, “Antiviral compounds” (priority 2013, dated 2021)
# Like-named read-outs stand apart in the source and are kept apart here.
# Assays:
# [1] = Cytotoxicity Determination (CCK-8, without addition of virus); format: cell-based; details: human, 50% cytotoxicity concentration (CC50)
# Procedure: (§1) CPE reduction assays are performed as described by Sidwell and Huffman et al., Appl. Microbiol. (1971) 22(5):797-801 with slight modifications. HEp-2 cells (ATCC #, CCL-23) are seeded at a density of 1,500 cells/30 μl/well into the 384-well cell plate(s) (Corning #3701) one day prior to the assay. Compounds are added into 384-well cell plates by Labcyte POD 810 Plate Assembler system. Each of the test compounds is provided to duplicate wells of a 384-well cell plate at final concentrations starting from 100 μM or 1 μM using 1/3 stepwise dilutions for 9 points. Quick-thaw Respiratory Syncytial Virus (RSV) long strain (ATCC #VR-26) stock in a 37° C. water bath. Place on ice until ready to use. Viruses are diluted to the concentration of 100 TCID50/30 μL with medium and 30 μl diluted RSV are added into related wells of 384-well cell plates. For each plate, sixteen wells are set aside as uninfected, untreated cell controls (CC), and nine wells per test plate receive virus only as a control for virus replication (VC). The final DMSO concentration of all wells is 1%. Place the plates at 37° C., 5% CO2 for 5 days.
# In order to determine the compound cytotoxicity, in parallel, each of the compounds is applied to duplicate wells in a 384-well cell plate at serial final concentrations starting from 100 μM using 1/2 stepwise dilutions for 7 points without addition of virus. Incubate the cells at 37° C., 5% CO2 for 5 days. Add 6 μL CCK-8 into each well and incubate in a CO2 incubator at 37° C. for 3-4 hours.
# recombinant RSV complex = recombinant RSV complex (Human respiratory syncytial virus A, UniProt P28887); experiment: RSV Polymerase Inhibition Assay; format: biochemical
# Method in brief: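 Inhibition measured as reduced incorporation of radiolabel into RNA products, detected by scintillation counting. Reactions: recombinant RSV complex (10 nM), RNA oligonucleotides, Tris-HCl pH 7.5, 6 mM MgCl2, inhibitor titration, 2 h at 30 °C, EDTA stop.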
# [2] = system: Respiratory Syncytial Virus (RSV) long strain; experiment: microbe, parasite or virus in culture; format: cell-based; details: human respiratory syncytial virus, Tables A and B list compounds by EC50 band
# Procedure: as §1
# After 5 days incubation, observe the CPE of cells in all wells. […] Six μl of cell counting kit-8 reagent (CCK-8, Dojindo Molecular Technologies Inc., CK04-20) are added to each well, which allows colorimetric assays to determine the number of viable cells through the dehydrogenase activity detection. After 3-4 hour incubation, the absorbance of each well is measured with a spectrophotometric plate reader at 450 nm wavelength, using a 630 nm filter as background according to manufacturer's instruction.
# [3] = HEp-2, 120 h, read-out: 50% effective concentration (EC50), HEp-2 cells infected with RSV long strain, 5 days, CCK-8 readout
# [4] = 120 h, read-out: 50% effective concentration (EC50), HEp-2 cells infected with RSV long strain, 5 days, CCK-8 readout
# Chain of recombinant RSV complex (P28887 whole entry): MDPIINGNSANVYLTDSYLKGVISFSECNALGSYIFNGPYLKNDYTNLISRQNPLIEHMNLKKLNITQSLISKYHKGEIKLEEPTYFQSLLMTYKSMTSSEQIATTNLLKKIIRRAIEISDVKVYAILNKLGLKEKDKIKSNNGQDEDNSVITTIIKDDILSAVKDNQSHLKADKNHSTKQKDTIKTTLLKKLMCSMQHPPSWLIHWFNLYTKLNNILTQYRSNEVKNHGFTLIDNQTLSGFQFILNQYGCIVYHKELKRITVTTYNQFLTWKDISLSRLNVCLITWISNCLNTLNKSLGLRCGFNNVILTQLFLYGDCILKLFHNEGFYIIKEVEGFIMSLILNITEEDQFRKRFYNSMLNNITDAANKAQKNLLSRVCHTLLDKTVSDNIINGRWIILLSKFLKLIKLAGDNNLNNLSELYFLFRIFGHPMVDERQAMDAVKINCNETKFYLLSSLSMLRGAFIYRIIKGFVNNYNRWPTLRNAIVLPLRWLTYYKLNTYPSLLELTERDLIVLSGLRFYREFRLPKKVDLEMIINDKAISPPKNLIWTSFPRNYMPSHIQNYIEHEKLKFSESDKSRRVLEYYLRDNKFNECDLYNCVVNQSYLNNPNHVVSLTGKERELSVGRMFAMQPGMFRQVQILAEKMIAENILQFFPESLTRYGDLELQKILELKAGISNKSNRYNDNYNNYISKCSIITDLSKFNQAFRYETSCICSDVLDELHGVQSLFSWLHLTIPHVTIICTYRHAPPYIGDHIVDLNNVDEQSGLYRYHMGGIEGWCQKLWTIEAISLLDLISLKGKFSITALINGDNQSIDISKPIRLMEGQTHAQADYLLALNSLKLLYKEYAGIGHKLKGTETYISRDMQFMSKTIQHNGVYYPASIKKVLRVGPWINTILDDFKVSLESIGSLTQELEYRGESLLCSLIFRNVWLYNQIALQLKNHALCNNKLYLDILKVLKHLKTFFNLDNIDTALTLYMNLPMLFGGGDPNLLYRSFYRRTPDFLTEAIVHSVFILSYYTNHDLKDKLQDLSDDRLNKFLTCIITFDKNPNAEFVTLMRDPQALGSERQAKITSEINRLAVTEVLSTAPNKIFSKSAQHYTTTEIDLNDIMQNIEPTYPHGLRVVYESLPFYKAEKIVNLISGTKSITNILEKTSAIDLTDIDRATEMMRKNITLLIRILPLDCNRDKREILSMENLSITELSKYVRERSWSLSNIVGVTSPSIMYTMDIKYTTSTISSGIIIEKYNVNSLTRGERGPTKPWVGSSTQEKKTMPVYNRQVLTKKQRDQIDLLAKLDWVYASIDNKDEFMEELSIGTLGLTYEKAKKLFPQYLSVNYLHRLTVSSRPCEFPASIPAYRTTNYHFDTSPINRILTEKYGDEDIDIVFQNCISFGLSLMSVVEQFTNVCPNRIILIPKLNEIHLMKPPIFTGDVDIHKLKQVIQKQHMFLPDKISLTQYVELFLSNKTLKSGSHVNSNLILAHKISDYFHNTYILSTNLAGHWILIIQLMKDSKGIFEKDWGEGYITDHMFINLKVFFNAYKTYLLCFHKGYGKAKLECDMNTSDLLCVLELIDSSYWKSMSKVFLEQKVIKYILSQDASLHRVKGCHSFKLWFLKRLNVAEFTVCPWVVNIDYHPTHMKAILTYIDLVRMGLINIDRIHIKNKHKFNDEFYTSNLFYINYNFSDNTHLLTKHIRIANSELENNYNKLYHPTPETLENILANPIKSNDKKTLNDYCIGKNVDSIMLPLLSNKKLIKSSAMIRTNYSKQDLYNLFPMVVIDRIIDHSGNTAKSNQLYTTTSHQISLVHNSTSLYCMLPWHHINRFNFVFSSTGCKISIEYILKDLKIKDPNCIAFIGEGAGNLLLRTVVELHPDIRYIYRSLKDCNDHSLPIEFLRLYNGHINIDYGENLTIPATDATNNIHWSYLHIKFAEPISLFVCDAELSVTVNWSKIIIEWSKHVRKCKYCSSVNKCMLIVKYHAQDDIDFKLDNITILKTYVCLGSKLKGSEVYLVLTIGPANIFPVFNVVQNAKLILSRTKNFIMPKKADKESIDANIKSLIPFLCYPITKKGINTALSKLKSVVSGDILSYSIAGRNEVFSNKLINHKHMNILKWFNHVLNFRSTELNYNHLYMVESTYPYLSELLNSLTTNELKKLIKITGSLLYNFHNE
# Chain of recombinant RSV complex (P03421 whole entry, further chain): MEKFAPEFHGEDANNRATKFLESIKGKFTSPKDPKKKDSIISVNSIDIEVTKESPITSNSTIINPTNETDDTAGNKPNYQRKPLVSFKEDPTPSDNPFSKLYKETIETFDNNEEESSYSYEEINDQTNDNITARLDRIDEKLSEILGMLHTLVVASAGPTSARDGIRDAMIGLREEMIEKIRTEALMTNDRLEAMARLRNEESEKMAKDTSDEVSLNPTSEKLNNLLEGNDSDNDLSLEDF
SMILES,CC50 at 5 days [1] [µM],IC50 (recombinant RSV complex) [µM],"EC50 [2, 3] [µM]","EC50 [2, 4] [µM]"
COc1ccc(C(O)(CNC(=O)c2ccc3c(c2)NC(=O)CO3)C(F)(F)F)nc1-c1ccc(F)c(Cl)c1 (stereo not drawn) [Compound 258],10 to 100,< 1,< 1,
COc1ccc(C(O)(CNC(=O)c2ccc(OC3CCNC3=O)cc2)C(F)(F)F)nc1-c1ccc(F)c(Cl)c1 (stereo not drawn) [Compound 261],10 to 100,< 1,< 1,
COc1ccc(C(O)(CNC(=O)c2ccc(OCCO)c(Cl)c2)C(F)(F)F)nc1-c1ccc(F)c(Cl)c1 (stereo not drawn) [Compound 262],10 to 100,< 1,< 1,
COc1ccc(C(O)(CNC(=O)c2ccc3ncn(C)c3c2)C(F)(F)F)nc1-c1ccc(F)c(Cl)c1 (stereo not drawn) [Compound 264],10 to 100,< 1,1 to 50,
COc1ccc(C(O)(CNC(=O)c2ccc3c(c2)ncn3C)C(F)(F)F)nc1-c1ccc(F)c(Cl)c1 (stereo not drawn) [Compound 265],10 to 100,< 10,1 to 50,
COc1ccc(C(O)(CNC(=O)c2ccc3ncoc3c2)C(F)(F)F)nc1-c1ccc(F)c(Cl)c1 (stereo not drawn) [Compound 266],10 to 100,< 1,1 to 50,
COc1ccc(C(O)(CNC(=O)c2ccc3[nH]c(=O)n(C)c3c2)C(F)(F)F)nc1-c1ccc(F)c(Cl)c1 (stereo not drawn) [Compound 267],10 to 100,< 1,< 1,
COc1ccc(C(O)(CNC(=O)c2ccc3c(c2)[nH]c(=O)n3C)C(F)(F)F)nc1-c1ccc(F)c(Cl)c1 (stereo not drawn) [Compound 268],10 to 100,< 10,1 to 50,
COc1cc(C(=O)NCC(O)(c2ccc(OC)c(-c3ccc(F)c(Cl)c3)n2)C(F)(F)F)ccc1OCC1(O)CC1 (stereo not drawn) [Compound 270],10 to 100,< 1,,< 1
CC(C)(N)c1cc(-c2ccc(F)c(Cl)c2)nc(C(O)(CNC(=O)c2cscn2)C(F)(F)F)c1 (stereo not drawn) [Compound 277],10 to 100,< 10,1 to 50,
CC(C)(N)c1cc(-c2ccc(F)c(Cl)c2)nc(C(O)(CNC(=O)c2cncs2)C(F)(F)F)c1 (stereo not drawn) [Compound 278],10 to 100,< 1,1 to 50,
Cc1nc(C(=O)NCC(O)(c2cc(C(C)(C)N)cc(-c3ccc(F)c(Cl)c3)n2)C(F)(F)F)cs1 (stereo not drawn) [Compound 279],10 to 100,< 1,1 to 50,
COc1cc(C(=O)NCC(O)(c2cc(C(C)(C)N)cc(-c3ccc(F)c(Cl)c3)n2)C(F)(F)F)ccc1O[C@@H]1CCNC1=O (stereo partly drawn) [Compound 285],10 to 100,< 1,< 1,
COc1cc(C(=O)NCC(C)(O)c2cc3c(c(-c4ccc(F)c(Cl)c4)n2)NCC3)ccc1OCCF (stereo not drawn) [Compound 286],10 to 100,< 10,1 to 50,
COc1cc(C(=O)NCC(=O)c2cc3c(c(-c4c[nH]c5c(F)cccc45)n2)OCC3)ccc1OCCF [Compound 287],> 100,< 1,< 1,
COc1cc(C(=O)NCC(C)(O)c2cc3cc[nH]c3c(-c3ccc(F)c(Cl)c3)n2)ccc1OCCF (stereo not drawn) [Compound 290],10 to 100,< 10,,1 to 50
COc1cc(C(=O)NCC(O)(c2cc3c(c(-c4c[nH]c5c(F)cccc45)n2)OCC3)C2CC2)ccc1OCCO (stereo not drawn) [Compound 297],10 to 100,< 1,< 1,
COc1cc(C(=O)NCC(O)(c2cc3c(c(-c4ccc(F)c(C(C)F)c4)n2)OCCC3(C)C)C2CC2)ccc1OCCO (stereo not drawn) [Compound 299],10 to 100,< 1,< 1,
COc1cc(C(=O)NCC(=O)c2cc3c(c(-c4ccc(F)c(Cl)c4)n2)OCC3C)ccc1OCCO (stereo not drawn) [Compound 305],10 to 100,< 1,< 1,
CCc1cc(-c2ccc(F)cc2)nc(C(C)(O)CNC(=O)c2ccc(OCCO)c(OC)c2)c1 (stereo not drawn) [Compound 353],> 100,< 1,< 1,

SMILES,CC50 at 5 days [1] [µM],IC50 (recombinant RSV complex) [µM],"EC50 [2, 3] [µM]","EC50 [2, 4] [µM]"
COc1cc(C(=O)NCC(C)(C)c2ccc(OC)c(-c3ccc(F)c(Cl)c3)n2)ccc1OCCO [Compound 368],10 to 100,< 100,< 1,
COc1cc(C(=O)NCC(O)(c2ccc(OC)c(-c3ccc(F)c(Cl)c3)n2)C2CC2)ccc1CCCO (stereo not drawn) [Compound 426],10 to 100,< 10,< 1,
COc1cc(C(=O)NCC(O)(c2ccc(OC)c(-c3ccc(F)c(Cl)c3)n2)C2CC2)ccc1OC(F)F (stereo not drawn) [Compound 432],10 to 100,< 1,1 to 50,
COc1cc(C(=O)NCC(F)(CF)c2ccc(OC)c(-c3ccc(F)c(Cl)c3)n2)ccc1OCCO (stereo not drawn) [Compound 435],10 to 100,< 1,< 1,
CCc1cc(-c2ccc(F)c(Cl)c2)nc(C(C)(O)CNC(=O)c2ccc(OCC(F)F)c(OC)c2)c1 (stereo not drawn) [Compound 440],10 to 100,< 1,,1 to 50
CNc1ccc(C(O)(CNC(=O)c2ccc(OC3CC3)c(OC)c2)C(F)(F)F)nc1-c1ccc(F)c(Cl)c1 (stereo not drawn) [Compound 451],> 100,< 1,< 1,
COc1cc(C(=O)NCC(O)(c2ccc(OC)c(-c3ccc(F)c(Cl)c3)n2)C2CNC2)ccc1OC1CC1 (stereo not drawn) [Compound 463],10 to 100,< 1,1 to 50,
COc1cc(C(=O)NCC(O)(c2cc(C(N)=O)cc(-c3ccc(F)c(Cl)c3)n2)C(F)(F)F)ccc1OC1CC1 (stereo not drawn) [Compound 464],10 to 100,< 1,< 1,
COc1cc(C(=O)NCC(O)(c2cc(CO)cc(-c3ccc(F)c(Cl)c3)n2)C(F)(F)F)ccc1OC1CC1 (stereo not drawn) [Compound 465],10 to 100,< 1,< 1,
COc1cc(C(=O)NCC(O)(CO)c2ccc(OC)c(-c3ccc(F)c(Cl)c3)n2)ccc1OC1CC1(F)F (stereo not drawn) [Compound 469],10 to 100,< 1,< 1,
COc1cc(C(=O)NCC(C)(CO)c2ccc(OC)c(-c3ccc(F)c(Cl)c3)n2)ccc1OCCO (stereo not drawn) [Compound 471],10 to 100,< 10,1 to 50,
COc1cc(C(=O)NCC(=O)c2cc3c(c(-c4ccc(F)c(Cl)c4)n2)OCC3(C)O)ccc1OC1CC1 (stereo not drawn) [Compound 473],10 to 100,< 1,< 1,
COc1cc(C(=O)NCC(=O)c2cc3c(C)coc3c(-c3ccc(F)c(Cl)c3)n2)ccc1OC1CC1 [Compound 474],> 100,< 1,< 1,
COc1cc(C(=O)NCC(C)(O)c2cc3c(c(-c4ccc(F)c(Cl)c4)n2)OCC3(C)O)ccc1OC1CC1 (stereo not drawn) [Compound 475],10 to 100,< 1,< 1,
CC1(N)COc2c1cc(C(O)(CNC(=O)c1ccc(OCCO)c(F)c1)C(F)(F)F)nc2-c1ccc(F)cc1 (stereo not drawn) [Compound 476],10 to 100,< 1,< 1,
CC(C)(N)c1cc(-c2ccc(F)c(Cl)c2)nc(C(O)(CNC(=O)c2cn3cccnc3n2)C(F)(F)F)c1 (stereo not drawn) [Compound 477],10 to 100,< 10,1 to 50,
COc1cc(C(=O)NCC(O)(c2ccc(OCCN)c(-c3ccc(F)cc3)n2)C(F)(F)F)ccc1OC1CC1 (stereo not drawn) [Compound 479],10 to 100,< 1,< 1,
COc1cc(C(=O)NCC(O)(c2cc3c(c(-c4ccc(F)c(Cl)c4)n2)OCC3(C)N[S+]([O-])C(C)(C)C)C(F)(F)F)ccc1OC1CC1 (stereo not drawn) [Compound 482],10 to 100,< 1,< 1,
COc1cc(C(=O)NCC(O)(c2cc(C(C)(N)CO)cc(-c3ccc(F)cc3)n2)C(F)(F)F)ccc1OCCO (stereo not drawn) [Compound 484],> 100,< 10,1 to 50,
COc1cc(C(=O)NCC(O)(c2cc3c(c(-c4ccc(F)nc4)n2)OCC3(C)N)C(F)(F)F)ccc1OCCO (stereo not drawn) [Compound 492],> 100,< 10,1 to 50,
